This note sets out measurements from US10927078B2, “Modulators of indoleamine 2,3-dioxygenase” (GLAXOSMITHKLINE INTELLECTUAL PROPERTY DEVELOPMENT LIMITED, priority 2017, dated 2021).

For the first assay, the target named is indoleamine 2, 3-dioxygenase (IDO1) (Homo sapiens, UniProt P14902). The assay is described as follows: PBMC IDO1 assay (kynurenine via mass spectrometry). The format is cell-based.
Sequence of indoleamine 2, 3-dioxygenase (IDO1) (P14902 whole entry): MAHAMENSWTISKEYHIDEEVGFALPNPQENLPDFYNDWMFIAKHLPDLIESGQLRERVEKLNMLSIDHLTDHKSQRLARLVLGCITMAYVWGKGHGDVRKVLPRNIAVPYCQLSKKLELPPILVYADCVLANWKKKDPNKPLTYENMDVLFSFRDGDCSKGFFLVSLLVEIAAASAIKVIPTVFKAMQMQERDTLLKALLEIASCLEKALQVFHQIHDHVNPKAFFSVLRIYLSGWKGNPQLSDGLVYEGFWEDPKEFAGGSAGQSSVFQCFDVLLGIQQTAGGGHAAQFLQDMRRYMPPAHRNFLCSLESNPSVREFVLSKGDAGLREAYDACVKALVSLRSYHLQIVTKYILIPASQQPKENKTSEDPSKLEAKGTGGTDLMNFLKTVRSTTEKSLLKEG
Details: not given
On the procedure: Compounds of the present invention were tested via high-throughput cellular assays utilizing detection of kynurenine via mass spectrometry and cytotoxicity as end-points. For the mass spectrometry and cytotoxicity assays, human peripheral blood mononuclear cells (PBMC) (PB003F; AllCells®, Alameda, Calif.) were stimulated with human interferon-γ (IFN-γ) (Sigma-Aldrich Corporation, St. Louis, Mo.) and lipopolysaccharide from Salmonella minnesota (LPS) (Invivogen, San Diego, Calif.) to induce the expression of indoleamine 2, 3-dioxygenase (IDO1). Compounds with IDO1 inhibitory properties decreased the amount of kynurenine produced by the cells via the tryptophan catabolic pathway. Cellular toxicity due to the effect of compound treatment was measured using CellTiter-Glo® reagent (CTG) (Promega Corporation, Madison, Wis.), which is based on luminescent detection of ATP, an indicator of metabolically active cells.
In preparation for the assays, test compounds were serially diluted 3-fold in DMSO from a typical top concentration of 5 mM and plated at 0.5 μL in 384-well, polystyrene, clear bottom, tissue culture treated plates with lids (Greiner Bio-One, Kremsmünster, Austria) to generate 11-point dose response curves. Low control wells (0% kynurenine or 100% cytotoxicity) contained either 0.5 μL of DMSO in the presence of unstimulated (-IFN-γ/-LPS) PBMCs for the mass spectrometry assay or 0.5 μL of DMSO in the absence of cells for the cytotoxicity assay, and high control wells (100% kynurenine or 0% cytotoxicity) contained 0.5 μL of DMSO in the presence of stimulated (+IFN-γ/+LPS) PBMCs for both the mass spectrometry and cytotoxicity assays.
Frozen stocks of PBMCs were washed and recovered in RPMI 1640 medium (Thermo Fisher Scientific, Inc., Waltham, Mass.) supplemented with 10% v/v heat-inactivated fetal bovine serum (FBS) (Thermo Fisher Scientific, Inc., Waltham, Mass.), and 1× penicillin-streptomycin antibiotic solution (Thermo Fisher Scientific, Inc., Waltham, Mass.). The cells were diluted to 1,000,000 cells/mL in the supplemented RPMI 1640 medium. 50 μL of either the cell suspension, for the mass spectrometry assay, or medium alone, for the cytotoxicity assay, were added to the low control wells, on the previously prepared 384-well compound plates, resulting in 50,000 cells/well or 0 cells/well respectively. IFN-γ and LPS were added to the remaining cell suspension at final concentrations of 100 ng/ml and 50 ng/ml respectively, and 50 μL of the stimulated cells were added to all remaining wells on the 384-well compound plates. The plates, with lids, were then placed in a 37° C., 5% CO2 humidified incubator for 2 days.
Following incubation, the 384-well plates were removed from the incubator and allowed to equilibrate to room temperature for 30 minutes. For the cytotoxicity assay, CellTiter-Glo® was prepared according to the manufacturer's instructions, and 40 μL were added to each plate well. After a twenty minute incubation at room temperature, luminescence was read on an EnVision® Multilabel Reader (PerkinElmer Inc., Waltham, Mass.). For the mass spectrometry assay, 10 μL of supernatant from each well of the compound-treated plates were added to 40 μL of acetonitrile, containing 10 μM of an internal standard for normalization, in 384-well, polypropylene, V-bottom plates (Greiner Bio-One, Kremsmünster, Austria) to extract the organic analytes. Following centrifugation at 2000 rpm for 10 minutes, 10 μL from each well of the acetonitrile extraction plates were added to 90 μL of sterile, distilled H2O in 384-well, polypropylene, V-bottom plates for analysis of kynurenine and the internal standard on the RapidFire 300 (Agilent Technologies, Santa Clara, Calif.) and 4000 QTRAP MS (SCIEX, Framingham, Mass.). MS data were integrated using Agilent Technologies' RapidFire Integrator software, and data were normalized for analysis as a ratio of kynurenine to the internal standard. […]
As to `COc1ncccc1OC(=O)N1CCC([C@H](NC(=O)c2ccc(Cl)cc2)c2ccccc2)CC1` [Example 49, 2-methoxypyridin-3-yl 4-[(S)-[(4-chlorophenyl)formamido](phenyl)methyl]piperidine-1-carboxylate], the IC50 is 0.01 µM.
On the same count and under the same terms, for `Cc1ncccc1OC(=O)N1CCC(C(CC(C)C)NC(=O)c2ccc(F)cc2)CC1` (stereo not drawn) [Example 18, 2-methylpyridin-3-yl 4-{1-[(4-fluorophenyl)formamido]-3-methylbutyl}piperidine-1-carboxylate] the value was 0.00316 µM.
Compound `Cc1ccnc(C)c1OC(=O)N1CCC(C(CC(C)C)NC(=O)c2ccc(Cl)cc2)CC1` (stereo not drawn) [Example 3, 2,4-dimethylpyridin-3-yl 4-(1-(4-chlorobenzamido)-3-methylbutyl)piperidine-1-carboxylate] showed an IC50 of 0.001 µM.
For the compound `COc1ncccc1OC(=O)N1CCC(C(CC(C)C)NC(=O)c2ccc(Cl)cc2)CC1` (stereo not drawn) [Example 10, 2-methoxypyridin-3-yl 4-{1-[(4-chlorophenyl)formamido]-3-methylbutyl}piperidine-1-carboxylate], the IC50 is 0.00251 µM.

Staying with this assay, now noted: human PBMC stimulated with IFN-γ and LPS, 2 days, kynurenine by mass spectrometry; recorded as pIC50; read-out: PBMC PXC50_ (converted).
In the case of `Cc1c(F)cccc1OC(=O)N1CCC(C(CC(C)C)NC(=O)c2ccc(F)cc2)CC1` (stereo not drawn) [Example 9, 3-fluoro-2-methylphenyl 4-{1-[(4-fluorophenyl)formamido]-3-methylbutyl}piperidine-1-carboxylate], the IC50 is 0.00251 µM.
Consider `O=C(NC(c1ccncc1)C1CCN(C(=O)Oc2ccncc2)CC1)c1ccc(F)cc1` (stereo not drawn) [Example 94, pyridin-4-yl 4-{[(4-fluorophenyl)formamido](pyridin-4-yl)methyl}piperidine-1-carboxylate], for which the IC50 is 1 µM.
Still for that read-out and setting: in the case of `CC(C)CC(NC(=O)c1ccc(F)cc1)C1CCN(C(=O)OC2CCNc3ccccc32)CC1` (stereo not drawn) [Example 84, 1,2,3,4-tetrahydroquinolin-4-yl 4-{1-[(4-fluorophenyl)formamido]-3-methylbutyl}piperidine-1-carboxylate] it was 0.501 µM; in that of `O=C(NC(c1ccncc1)C1CCN(C(=O)OC2CCCCC2)CC1)c1ccc(F)cc1` (stereo not drawn) [Example 100, cyclohexyl 4-{[(4-fluorophenyl)formamido](pyridin-4-yl)methyl}piperidine-1-carboxylate], 3.16 µM; in that of `CC(NC(=O)c1ccc(Cl)s1)C1CCN(C(=O)Oc2ccccc2)CC1` (stereo not drawn) [Example 52, phenyl 4-{1-[(5-chlorothiophen-2-yl)formamido]ethyl}piperidine-1-carboxylate], 0.0158 µM.
For the compound `CC(C)CC(NC(=O)c1ccc(F)cc1)C1CCN(C(=O)Oc2ccccc2)CC1` (stereo not drawn) [Example 37, phenyl 4-{1-[(4-fluorophenyl)formamido]-3-methylbutyl}piperidine-1-carboxylate], the IC50 was 0.00794 µM.
Turning to `COc1cccc(OC(=O)N2CCC(C(CC(C)C)NC(=O)c3ccc(F)cc3)CC2)c1` (stereo not drawn) [Example 54, 3-methoxyphenyl 4-{1-[(4-fluorophenyl)formamido]-3-methylbutyl}piperidine-1-carboxylate], the IC50 was 0.02 µM.
Regarding `COc1cc(OC(=O)N2CCC(C(NC(=O)c3ccc(F)cc3)c3ccncc3)CC2)ccn1` (stereo not drawn) [Example 93, 2-methoxpyridin-4-yl 4-{[(4-fluorophenyl)formamido](pyridin-4-yl)methyl}piperidine-1-carboxylate], the IC50 is 0.794 µM.
On the same count and under the same terms, in the case of `Cc1nccc(OC(=O)N2CCC([C@H](NC(=O)c3ccc(Cl)s3)c3ccccc3)CC2)c1C` [Example 1, (S)-2,3-dimethylpyridin-4-yl 4-((5-chlorothiophene-2-carboxamido)(phenyl)methyl)piperidine-1-carboxylate] it was 0.000631 µM; in that of `COc1c(F)cccc1OC(=O)N1CCC(C(CC(C)C)NC(=O)c2ccc(F)cc2)CC1` (stereo not drawn) [Example 13, 3-fluoro-2-methoxyphenyl 4-{1-[(4-fluorophenyl)formamido]-3-methylbutyl}piperidine-1-carboxylate], 0.00251 µM; in that of `Cc1c(OC(=O)N2CCC(C(CC(C)C)NC(=O)c3ccc(F)cc3)CC2)ccnc1F` (stereo not drawn) [Example 33, 2-fluoro-3-methylpyridin-4-yl 4-{1-[(4-fluorophenyl)formamido]-3-methylbutyl}piperidine-1-carboxylate], 0.00631 µM.
On the same count and under the same terms, for `CC(C)CC(NC(=O)c1ccc(Cl)cc1)C1CCN(C(=O)Oc2ccccc2)CC1` (stereo not drawn) [Example 26, phenyl 4-{1-[(4-chlorophenyl)formamido]-3-methylbutyl}piperidine-1-carboxylate] the value was 0.00501 µM; for `COc1ccc([C@@H](NC(=O)c2ccc(Cl)cc2)C2CCN(C(=O)Oc3ccccc3)CC2)cn1` [Example 111, (S)-phenyl 4-((4-chlorobenzamido)(6-methoxypyridin-3-yl)methyl)piperidine-1-carboxylate], 0.0631 µM; for `CC(C)CC(NC(=O)c1ccc(F)cc1)C1CCN(C(=O)Oc2cccc(F)c2Cl)CC1` (stereo not drawn) [Example 11, 2-chloro-3-fluorophenyl 4-{1-[(4-fluorophenyl)formamido]-3-methylbutyl}piperidine-1-carboxylate], 0.00251 µM.
In the case of `Cc1ccc(C(=O)N[C@H](C2CC2)C2CCN(C(=O)Oc3ccnc(C)c3C)CC2)s1` [Example 32, 2,3-dimethylpyridin-4-yl 4-[(R)-cyclopropyl[(5-methylthiophen-2-yl)formamido]methyl]piperidine-1-carboxylate], the IC50 was 0.00501 µM.
The same measure, in the same setting: for `O=C(N[C@@H](C1CC1)C1CCN(C(=O)Oc2ccccc2)CC1)c1ccc(Cl)s1` [Example 91, phenyl 4-[(S)-[(5-chlorothiophen-2-yl)formamido](cyclopropyl)methyl]piperidine-1-carboxylate] the value was 0.631 µM; for `Cc1c(OC(=O)N2CCC([C@@H](C)NC(=O)c3ccc(Cl)s3)CC2)ccnc1F` [Example 101, 2-fluoro-3-methylpyridin-4-yl 4-[(1R)-1-[(5-chlorothiophen-2-yl)formamido]ethyl]piperidine-1-carboxylate], 3.16 µM; for `O=C(NC(c1ccccc1)C1CCN(C(=O)Oc2ccccc2)CC1)c1ccc(C(F)(F)F)cc1` (stereo not drawn) [Example 73, phenyl 4-[phenyl({[4-(trifluoromethyl)phenyl]formamido})methyl]piperidine-1-carboxylate], 0.158 µM.
With `CC(C)C[C@H](NC(=O)c1ccccc1)C1CCN(C(=O)Oc2ccccc2)CC1` [Example 75, phenyl 4-[(1S)-3-methyl-1-(phenylformamido)butyl]piperidine-1-carboxylate], the IC50 is 0.158 µM.
Still for that read-out and setting: in the case of `CC(C)(C)OC(=O)N1CCC(C(NC(=O)c2ccccc2)c2ccccc2)CC1` (stereo not drawn) [Example 98, tert-butyl 4-[phenyl(phenylformamido)methyl]piperidine-1-carboxylate] it was 1.58 µM; in that of `Cc1c(F)cccc1OC(=O)N1CCC([C@@H](CCCO)NC(=O)c2ccc(F)cc2)CC1` [Example 80, 3-fluoro-2-methylphenyl 4-[(1R)-1-[(4-fluorophenyl)formamido]-4-hydroxybutyl]piperidine-1-carboxylate], 0.316 µM; in that of `CC(C)CC(NC(=O)c1ccc(F)cc1)C1CCN(C(=O)OCc2ccccc2)CC1` (stereo not drawn) [Example 62, benzyl 4-{1-[(4-fluorophenyl)formamido]-3-methylbutyl}piperidine-1-carboxylate], 0.0631 µM.
The same measure, in the same setting: in the case of `Cc1c(F)cccc1OC(=O)N1CCC([C@H](NC(=O)c2ccc(Cl)s2)C2CC2)CC1` [Example 19, 3-fluoro-2-methylphenyl 4-[(R)-[(5-chlorothiophen-2-yl)formamido](cyclopropyl)methyl]piperidine-1-carboxylate] it was 0.00316 µM.
